Results: PMC10581904, “Structural basis for abscisic acid efflux mediated by ABCG25 in Arabidopsis thaliana” (Nature Plants, 2023)
Numbering of substitutions follows the chain as printed. Names may count otherwise. Values belong to the molecule of their own block, whether it stands above or below them.

Key:
[1] = biological target: T1, ABCG25 (Arabidopsis thaliana, UniProt Q84TH5); experiment: stimulation of ATPase activity (colorimetric Pi release), allosteric sigmoidal fit; assay type: biochemical; set-up: full-length, N-terminal Flag tag, baculovirus / Sf9 cells, homodimer, purified in DDM or digitonin (with CHS extraction)
T1 sequence (Q84TH5 1-662): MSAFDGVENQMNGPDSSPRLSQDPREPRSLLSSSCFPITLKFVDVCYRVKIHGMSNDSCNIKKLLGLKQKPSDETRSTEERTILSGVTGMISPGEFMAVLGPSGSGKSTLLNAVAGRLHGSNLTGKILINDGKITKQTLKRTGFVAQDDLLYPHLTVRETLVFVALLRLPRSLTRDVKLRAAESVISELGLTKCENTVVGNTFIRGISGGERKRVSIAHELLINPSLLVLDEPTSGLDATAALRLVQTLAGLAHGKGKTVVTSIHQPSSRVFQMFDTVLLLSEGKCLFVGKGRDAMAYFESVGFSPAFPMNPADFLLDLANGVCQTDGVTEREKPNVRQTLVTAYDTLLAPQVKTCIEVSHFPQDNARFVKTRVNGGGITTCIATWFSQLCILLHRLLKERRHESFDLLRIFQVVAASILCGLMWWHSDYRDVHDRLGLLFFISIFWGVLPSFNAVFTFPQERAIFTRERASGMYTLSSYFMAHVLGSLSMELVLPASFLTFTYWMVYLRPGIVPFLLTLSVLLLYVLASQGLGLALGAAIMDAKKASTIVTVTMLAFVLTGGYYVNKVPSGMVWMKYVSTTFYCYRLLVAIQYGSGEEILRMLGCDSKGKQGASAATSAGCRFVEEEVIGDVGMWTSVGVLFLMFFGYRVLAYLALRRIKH

[2] = biological target: T1, ABCG25; experiment: [3H]-ABA loading and efflux assays in Sf9 cells; assay type: cell-based; set-up: full-length, N-terminal Flag tag, baculovirus / Sf9 cells; details: 6.6 nM, pH 5.5; labelled compound
[3] = biological target: T1, ABCG25; experiment: ATPase activity in liposomes reconstituted with or without cholesterol; assay type: biochemical; set-up: full-length, N-terminal Flag tag, baculovirus / Sf9 cells, homodimer, purified in DDM or digitonin (with CHS extraction); details: lipid:cholesterol 9:1 (w/w), proteoliposomes; direct action not proven (sterol identity in the cavity not settled)
[4] = substrate: Nc1ncnc2c1ncn2[C@@H]1O[C@H](COP(=O)(O)OP(=O)(O)OP(=O)(O)O)[C@@H](O)[C@H]1O; experiment: ATPase activity (colorimetric Pi release), Michaelis-Menten fit; assay type: biochemical, Arabidopsis thaliana; details: 10 mM MgCl2, pH 7.4, 37 °C, detergent micelle (0.01% DDM), no ABA
[5] = biological target: the molecule itself; experiment: cryo-EM structure; single particle analysis of purified ABCG25WT in 25 mM HEPES-NaOH pH 7.4, 150 mM NaCl, 0.03% digitonin; apo or with 2 mM ABA; C2 symmetry applied
[6] = biological target: the molecule itself; experiment: cryo-EM structure; single particle analysis of purified E232Q ABCG25 in digitonin, incubated with 5 mM ATP and 10 mM MgCl2 on ice for 60 min

EC50 [1]: 680 nM
Molecule: CC1=CC(=O)CC(C)(C)[C@@]1(O)/C=C/C(C)=C/C(=O)O [ABA, (S)-(+)-Abscisic acid]

Molecule: CC1=CC(=O)CC(C)(C)[C@@]1(O)/C=C/C(C)=C\C(=O)O [[3H]-ABA]
residual [3H]-ABA [2]: residual [^3H]-ABA substantially decreased in cells expressing ABCG25

Molecule: CC(C)CCC[C@@H](C)[C@H]1CC[C@H]2[C@@H]3CC=C4C[C@@H](O)CC[C@]4(C)[C@H]3CC[C@]12C [cholesterol]
ATPase activity [3]: cholesterol was added during liposomes reconstitution, the ATPase activity of ABCG25 was significantly reduced

B1: wild-type ABCG25 from Arabidopsis thaliana (natural protein, UniProt Q84TH5 1-662, looked up)
chain: T1 sequence (Q84TH5 1-662)
notes: ABCG25, Arabidopsis thaliana, UniProt Q84TH5, full length; Homodimer of a half-transporter (one NBD and one TMD per chain); No cleavage of the Flag tag is described; the protein was eluted with Flag peptide; also called ABCG25WT; WT
Km [4]: 790 µM
stoichiometry N [5]: 2

B2: ABCG25 E232Q catalytic mutant (natural protein, Arabidopsis thaliana, UniProt Q84TH5 1-662, looked up)
chain: T1 sequence (Q84TH5 1-662) with E232Q
notes: ABCG25, Arabidopsis thaliana, UniProt Q84TH5, full length, with E232Q in the Walker B motif of the NBD; Made and purified in the same way as the wild type; incubated with ATP and Mg2+ before grid preparation; also called ABCG25EQ; E232Q ABCG25
stoichiometry N [6]: 2
